In test [1] the target is T1, hVR1 (Homo sapiens, UniProt Q8NER1).
T1 construct: expressed in transfected cells; host or cells: CHO K1 cells (ECACC), stably transfected
The experiment in a line: Functional test on human VR1, NADA (N-arachidonoyl dopamine) stimulus. Details: key to Ki (human being) NADA: agonist / partial agonist / no effect: AG=agonist; pAG=partial agonist; NE=no effect. It is filed as cell-based, human being. Particulars: for Ki: includes values given in brackets after pAG, read-out: Ki (human being) [nM] NADA. The source says: II. Functional Tests Carried Out on the Vanilloid Receptor (VR1)
The agonistic or antagonistic effect of the substances to be tested on the vanilloid receptor 1 (VR1) can also be determined using the following assay. In this assay, the influx of Ca^2+ through the channel is quantified with the aid of a Ca^2+-sensitive dye (type Fluo-4, Molecular Probes Europe BV, Leiden, the Netherlands) in a fluorescent imaging plate reader (FLIPR, Molecular Devices, Sunnyvale, USA).
Chinese hamster ovary cells (CHO K1 cells, European Collection of Cell Cultures (ECACC) United Kingdom) are stably transfected with the VR1 gene. For functional testing, these cells are plated out on poly-D-lysine-coated black 96-well plates having a clear base (BD Biosciences, Heidelberg, Germany) at a density of 25,000 cells/well. The cells are incubated overnight at 37° C. and 5% CO2 in a culture medium (Ham's F12 nutrient mixture, 10% by volume of FCS (foetal calf serum), 18 μg/ml of L-proline). The next day the cells are incubated with Fluo-4 (Fluo-4 2 μM, 0.01% by volume of Pluronic F127, Molecular Probes in HBSS (Hank's buffered saline solution), Gibco Invitrogen GmbH, Karlsruhe, Germany) for 30 minutes at 37° C. Subsequently, the plates are washed three times with HBSS buffer and after further incubation for 15 minutes at RT used for Ca^2+ measurement in a FLIPR assay. The Ca^2+-dependent fluorescence is measured before and after the addition of the substances to be tested (λex wavelength=488 nm, λem=540 nm). Quantification is carried out by measuring the highest fluorescence intensity (FC, fluorescence counts) over time.
The FLIPR protocol consists of 2 substance additions. First the compounds to be tested (10 μM) are pipetted onto the cells and the Ca^2+ influx is compared with the control (capsaicin 10 μM) (% activation based on the Ca^2+ signal after the addition of 10 μM of capsaicin). […]
Desensitising agonists and antagonists led to suppression of the Ca^2+ influx. The % inhibition is calculated compared to the maximum achievable inhibition with 10 μM of capsaicin.
Starting from the percentage displacement caused by different concentrations of the compounds to be tested of general formula I, IC50 inhibitory concentrations which cause a 50-per cent displacement of capsaicin were calculated. Ki values for the test substances were obtained by conversion by means of the Cheng-Prusoff equation (Cheng, Prusoff; Biochem. Pharmacol. 22, 3099-3108, 1973).
NADA=N-arachidonoyl dopamine

Test [2] has as its target T1, hVR1. Description: Functional test on hVR1 after pH stimulus. The format is cell-based, human being. Details: key to IC50 (human being) hVR1, pH: agonist / partial agonist / no effect: AG=agonist; pAG=partial agonist; NE=no effect. Particulars: for inhibition at 10 µM: read-out: IC50 (human being) hVR1, pH: inhibition (as a percentage).
A further test concerns NMRI mice. The experiment in a line: Neuropathic pain in mice, Bennett model (chronic constriction injury, cold allodynia) (CClm). It is filed as in vivo. How it is done:
VI. Neuropathic Pain in Mice
Efficacy in […] pain was tested using the Bennett model (chronic constriction injury; Bennett and Xie, 1988, Pain 33: 87-107).
Three loose ligatures are tied around the right ischiadic nerve of Ketavet/Rompun-anaesthetised NMRI mice weighing 16-18 g. The animals develop hypersensitivity of the innervated paw caused by the damaged nerve, which hypersensitivity is quantified, following a recovery phase of one week, over a period of approximately three weeks by means of a cold metal plate (temperature 4° C.) (cold allodynia). The animals are observed on this plate over a period of 2 min and the withdrawal reactions of the damaged paw are counted. Based on the pre-value prior to the application of the substance, the substance's effect over a certain period of time is determined at various points in time (for example 15, 30, 45, or 60 min following application) and the resultant area under the curve (AUC) and/or the inhibition of cold allodynia at the individual measuring points is/are expressed as a percentage effect relative to the vehicle control (AUC) or to the starting value (individual measuring points). The group size is n=10, the significance of an antiallodynic effect (*=p<0.05) is determined with the aid of an analysis of variance with repeated measures and Bonferroni post hoc analysis.
CClm=Bennet model in mice

Test [3] concerns the target T1, hVR1. Description: Functional test on human VR1, 45° C. stimulus. It is filed as cell-based, human being. Details: key to IC50 (human being), 45° C.: agonist / partial agonist / no effect: AG=agonist; pAG=partial agonist; NE=no effect.

The source of these data is patent US8334315B2, “Substituted aromatic carboxamide and urea derivatives as vanilloid receptor ligands” (Gruenenthal GmbH, priority 2009, dated 2012).

What is called Ki is a measure of affinity in units of concentration, obtained from inhibition or displacement. What is called inhibition is how much of the control response was suppressed. A word on the IC50: it is the concentration that gives 50% inhibition.

T1 sequence (Q8NER1 whole entry): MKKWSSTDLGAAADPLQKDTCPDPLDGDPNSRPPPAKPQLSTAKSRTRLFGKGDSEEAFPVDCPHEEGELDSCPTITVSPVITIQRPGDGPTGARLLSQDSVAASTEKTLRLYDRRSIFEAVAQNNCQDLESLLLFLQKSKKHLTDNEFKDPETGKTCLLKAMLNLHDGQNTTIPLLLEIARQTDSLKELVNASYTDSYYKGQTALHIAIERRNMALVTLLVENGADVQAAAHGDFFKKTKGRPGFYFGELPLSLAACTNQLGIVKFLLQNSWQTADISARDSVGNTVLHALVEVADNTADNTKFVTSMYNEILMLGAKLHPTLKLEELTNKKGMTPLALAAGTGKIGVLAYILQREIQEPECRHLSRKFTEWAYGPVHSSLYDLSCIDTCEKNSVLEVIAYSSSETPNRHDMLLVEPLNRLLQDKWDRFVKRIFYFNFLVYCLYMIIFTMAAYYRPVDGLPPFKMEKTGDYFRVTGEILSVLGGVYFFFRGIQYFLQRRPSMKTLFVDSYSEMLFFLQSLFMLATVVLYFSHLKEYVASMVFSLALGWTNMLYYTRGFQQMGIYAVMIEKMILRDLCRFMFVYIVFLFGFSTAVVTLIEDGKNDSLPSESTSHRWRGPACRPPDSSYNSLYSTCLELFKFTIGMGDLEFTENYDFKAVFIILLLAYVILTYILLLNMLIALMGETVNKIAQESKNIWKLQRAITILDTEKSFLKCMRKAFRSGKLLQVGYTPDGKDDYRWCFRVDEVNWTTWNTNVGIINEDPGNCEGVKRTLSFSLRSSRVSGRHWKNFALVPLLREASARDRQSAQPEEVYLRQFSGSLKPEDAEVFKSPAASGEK

Take `Cc1nc2ccc(C(C)C(=O)NCc3cc(C(F)(F)F)nn3-c3cccc(Cl)c3)cc2s1` (centres unmarked) [Example 45, N-((1-(3-chlorophenyl)-3-(trifluoromethyl)-1H-pyrazol-5-yl)methyl)-2-(2-methylbenzo[d]thiazol-6-yl)propanamide]: at hVR1 [1], the “Ki (human being) NADA: agonist / partial agonist / no effect” value (shortened to “Ki … agonist / partial agonist / no effect”) was “pAG” and the inhibitory constant (Ki) turned out to be 11.8 nM.

`CC(C)(C)c1cc(CNC(=O)Nc2ccc3c(c2)CCC3)n(-c2cccc(Cl)c2)n1` [Example 79, 1-((3-tert-butyl-1-(3-chlorophenyl)-1H-pyrazol-5-yl)methyl)-3-(2,3-dihydro-1H-inden-5-yl)urea]: at hVR1 [2], the inhibition at 10 µM came to 21%. Further, the Ki on hVR1 [1] was 12.6 nM. Further, in the test on NMRI mice (1 po), the “CClm (Bennett model, percentage effect on cold allodynia)” value was “CClm 70%”.

Take `CC(C(=O)NCc1cc(C(F)(F)F)nn1-c1cccc(Cl)c1)c1ccc2cc(O)ccc2c1` (centres unmarked) [Example 50, N-((1-(3-chlorophenyl)-3-(trifluoromethyl)-1H-pyrazol-5-yl)methyl)-2-(6-hydroxynaphthalen-2-yl)propanamide]: the “IC50 (human being), 45° C.: agonist / partial agonist / no effect” value at hVR1 [3] is listed as “pAG”. Further, the “IC50 (human being) hVR1, pH: agonist / partial agonist / no effect” value at hVR1 [2] is “pAG”. In the test on NMRI mice (0.1 iv), the “CClm (Bennett model, percentage effect on cold allodynia)” value is “CClm 83%”.

As for `CC(C(=O)NCc1cc(C(C)(C)C)nn1-c1cccc(Cl)c1)c1ccc2c(c1)OCCO2` (centres unmarked) [Example 13, N-((3-tert-butyl-1-(3-chlorophenyl)-1H-pyrazol-5-yl)methyl)-2-(2,3-dihydrobenzo[b][1,4]dioxin-6-yl)propanamide], the “IC50 (human being), 45° C.: agonist / partial agonist / no effect” value on hVR1 [3] is given as “pAG”. At hVR1 [2], the inhibition at 10 µM is 49%. On hVR1 [1], the “Ki … agonist / partial agonist / no effect” value is on record as “pAG” and the inhibition constant Ki was determined as 4.3 nM. In the test on NMRI mice (0.1 iv), the “CClm (Bennett model, percentage effect on cold allodynia)” value is reported as “CClm 85%”.

In the case of `CC(C(=O)NCc1cc(C(C)(C)C)nn1-c1cccc(Cl)c1)c1ccc2c(c1)OCO2` (centres unmarked) [Example 11, 2-(benzo[d][1,3]dioxol-5-yl)-N-((3-tert-butyl-1-(3-chlorophenyl)-1H-pyrazol-5-yl)methyl)propanamide], the “IC50 (human being), 45° C.: agonist / partial agonist / no effect” value on hVR1 [3] was “pAG”. In addition, the inhibition at 10 µM on hVR1 [2] was determined as 36%. Further, the “Ki … agonist / partial agonist / no effect” value at hVR1 [1] is “pAG”. Also, in the test on NMRI mice (0.1 iv), the “CClm (Bennett model, percentage effect on cold allodynia)” value is “CClm 77%”.

For the molecule `CC(C(=O)NCc1cc(C(F)(F)F)nn1-c1cccc(Cl)c1)c1cccc2cnccc12` (centres unmarked) [Example 64, N-((1-(3-chlorophenyl)-3-(trifluoromethyl)-1H-pyrazol-5-yl)methyl)-2-(isoquinolin-5-yl)propanamide], the half-inhibitory concentration (IC50) at hVR1 [3] (read-out: IC50 (human being) [nM], 45° C.) came out at 357 nM. In addition, the inhibitory constant (Ki) at hVR1 [1] turned out to be 0.02 nM. The “CClm (Bennett model, percentage effect on cold allodynia)” value in the test on NMRI mice (1 iv) is “CClm 62%”.
